Laboratory results taken from US8829014B2, “Thiazole and thiophene analogues, and their use in treating autoimmune diseases and cancers” (Board of Supervisors of Louisiana State University and …, priority 2006, dated 2014).

What follows are molecules tested on carageenan-induced edema (assay: Carrageenan-induced rat paw edema test (anti-inflammatory activity)). Settings: Rattus norvegicus, po, 3 h, carrageenan-induced rat paw edema; defined in Example 397; read-out: % Protection.
Assay type: in vivo, Sprague-Dawley rats
Procedure: Sprague-Dawley rats, male and female, 150-250 g will be used in an edema test. Rats will be deprived of food but not water for 18 hours prior to the experiment. The test compounds will be administered with a blunt-tipped needle orally, 50 mg/kg, as a suspension in 0.1% sodium CMC (carboxymethylcellulose) vehicle. Alternatively, the test compounds will be injected intravenously, subcutaneously, or intraperitoneally. One hour later, 0.1 ml of a 1% carrageenan solution in saline will be injected in the sub-plantar region of the right hind paw of each rat. […] The reading will be repeated 3 hours later. The displacement readings give a measure of carageenan-induced edema. Any reduction in carageenan-induced edema with a test compound, as compared to saline control, is a measure of the anti-inflammatory activity of the test compound. The percentage protection at 50-mg/kg doses was calculated according to the following formula: % Protection=[(Control−Test)/Control]×100%.
Following treatment, the media from the VSMC and HUVEC incubations were removed, and the amount of lactate dehydrogenase (LDH) released into the medium was determined with a commercial kit and expressed as a % increase over vehicle-treated cells. HPT toxicity was determined by the ethidium homodimer (EthHD) uptake assay. […] The lead compounds were also tested in two pairs of cell lines from the skin or prostate, one tumorigenic and one non-tumorigenic, to test for differing toxicity or heightened sensitivity in the tumorigenic lines. The cells were treated for 48 h with vehicle (0.1% DMSO) or 10 μM of each drug candidate, and the viability of the cells was determined by the MTT assay, expressed as a % decrease in viability compared to vehicle-treated cells. The in vivo inflammation model measured the % inhibition of rat paw edema induced by carageenan injection.

| Molecule | inhibition in vivo at 50 mg/kg |
| --- | --- |
| Cc1ccccc1-n1c(-c2sc(Nc3ccc(Cl)cc3)nc2-c2ccccc2)nc2ccccc2c1=O [Example 178, 2-[2-(4-Chloro-phenylamino)-4-phenyl-thiazol-5-yl]-3-o-tolyl-3H-quinazolin-4-one] | 51% |

Same assay, conditions: Rattus norvegicus, po, 3 h, rat paw edema, 50 mg/kg, reading 3 hours after carrageenan; [(Control−Test)/Control]×100%; read-out: % Protection P

| Molecule | inhibition in vivo at 50 mg/kg |
| --- | --- |
| O=c1c2ccccc2nc(-c2cc(-c3ccc(Cl)cc3)c(N3CCOCC3)s2)n1-c1ccccc1Cl [Example 305, 2-[4-(4-Chlorophenyl)-5-morpholin-4-yl-thiophene-2-yl]-3-(2-chlorophenyl)-3H-quinazolin-4-one] | 40% |
| O=C(c1ccccn1)c1sc(N2CCN(C(=O)c3ccco3)CC2)nc1-c1ccco1 [Example 380, {2-[4-(Furan-2-carbonyl)-piperazin-1-yl]-4-furan-2-yl-thiazol-5-yl}-pyridin-2-yl-methanone] | 42% |
| O=C(c1cccnc1)c1cc(-c2ccncc2)c(N2CCOCC2)s1 [Example 110, (5-Morpholin-4-yl-4-pyridin-4-yl-thiophen-2-yl)-pyridin-3-yl-methanone] | -6.93% |
| Nc1nc(Nc2ccccc2)sc1C(=O)c1ccccn1 [Example 329, (4-Amino-2-phenylamino-thiazol-5-yl)-pyridin-2-yl-methanone] | 54% |
| CS(=O)(=O)c1ccc(C(=O)c2cc(-c3ccccc3)c(N3CCOCC3)s2)cc1 [Example 48, (4-Methylsulfonyl-phenyl)-(5-morpholin-4-yl-4-phenyl-thiophene-2-yl)-methanone] | 30% |
| COc1c(C)cc(-c2cc(-c3cccnc3)c(N3CCOCC3)s2)nc1C [Example 88, 4-[5-(5-Methoxy-4,6-dimethyl-pyridin-2-yl)-3-pyridin-3-yl-thiophen-2-yl]-morpholine] | -18.1% |
| O=c1c2ccccc2nc(-c2cc(-c3ccccc3)c(N3CCOCC3)s2)n1-c1ccccc1Cl [Example 304, 3-(2-Chlorophenyl)-2-(5-morpholin-4-yl-4-phenyl-thiophen-2-yl)-3H-quinazolin-4-one] | 37% |
| CS(=O)(=O)c1ccc(-c2cc(-c3nc4ccccc4c(=O)n3-c3ccccc3Cl)sc2N2CCOCC2)cc1 [Example 307, 2-[4-(4-Methanesulphonyl-phenyl)-5-morpholin-4-yl-thiophen-2-yl]-3-(2-chloro-phenyl)-3H-quinazolin-4-one] | 31% |
| COc1ccc(Nc2nc(N)c(C(=O)c3ccc(NC(C)=O)cc3)s2)cc1 [Example 348, (N-{4-[4-Amino-2-(4-methoxy-phenylamino)-thiazole-5-carbonyl]-phenyl}-acetamide)] | 28.3% |
| O=C(c1sc(Nc2ccc(Cl)cc2)nc1-c1ccccc1)c1sc(Nc2ccc(Cl)cc2)nc1-c1ccccc1 [Example 127, Bis-[2-(4-Chloro-phenylamino)-4-phenyl-thiazole-5-yl]-methanone] | 43.5% |
| CC(=O)Nc1ccc(-c2cc(C(=O)c3cc(-c4ccc(NC(C)=O)cc4)c(N4CCOCC4)s3)sc2N2CCOCC2)cc1 [Example 113, N-{4-{5-[4-(4-acetylamino-phenyl)-5-morpholin-4-yl-thiophene-2-carbonyl]-2-morpholin-4-yl-thiophene-3-yl}-phenyl)-acetamide] | 45.5% |
| COc1ccc(Nc2nc(N)c(-c3ncc(C)c(OC)c3C)s2)cc1 [Example 352, (5-(4-Methoxy-3,5-dimethyl-pyridin-2-yl)-N2-(4-methoxy-phenyl)-thiazole-2,4-diamine)] | 23% |
| CS(=O)(=O)c1ccc(-c2cc(C(=O)c3ccccc3)sc2N2CCOCC2)cc1 [Example 54, [4-(4-Methanesulfonyl-phenyl)-5-morpholin-4-yl-thiophene-2-yl]-phenyl-methanone] | 17.8% |
| COc1ccc(C(=O)c2sc(N3CCN(C(=O)c4ccco4)CC3)nc2-c2ccccc2)cc1 [Example 382, {2-[4-(Furan-2-carbonyl)-piperazin-1-yl]-4-phenyl-thiazol-5-yl}-(4-methoxy-phenyl)-methanone] | 46% |
| CC(=O)Nc1ccc(C(=O)c2cc(-c3ccncc3)c(N3CCOCC3)s2)cc1 [Example 109, N-[4-(5-Morpholin-4-yl-4-pyridin-4-yl-thiophen-2-carbonyl)-phenyl]-acetamide] | -75.2% |
| O=C(c1ccc(Cl)cc1)c1cc(-c2ccc(Cl)cc2)c(N2CCOCC2)s1 [Example 81, (4-Chloro-phenyl)-[4-(4-chloro-phenyl)-5-morpholin-4-yl-thiophen-2-yl]-methanone] | 20% |
| CC(=O)Nc1ccc(C(=O)c2sc(Nc3ccccc3)nc2N)cc1 [Example 326, N-[4-(4-Amino-2-phenylamino-thiazole-5-carbonyl)-phenyl]-acetamide] | 34% |
| Nc1nc(Nc2ccccc2)sc1C(=O)c1ccc(Cl)cc1 [Example 323, (4-Amino-2-phenylamino-thiazol-5-yl)-(4-chloro-phenyl)-methanone] | 43% |
| Cc1cccc(-n2c(-c3cc(-c4ccc(S(C)(=O)=O)cc4)c(N4CCOCC4)s3)nc3ccccc3c2=O)c1 [Example 287, 2-[4-(4-Methanesulfonyl-phenyl)-5-morpholin-4-yl-thiophen-2-yl]-3-m-tolyl-3H-quinazolin-4-one] | 51% |
| O=C(c1ccc(Cl)cc1)c1cc(-c2cccnc2)c(N2CCOCC2)s1 [Example 93, (4-Chloro-phenyl)-(5-morpholin-4-yl-4-pyridin-3-yl-thiophen-2-yl)-methanone] | 0% |
| O=C(c1ccccc1)c1cc(-c2ccc(Cl)cc2)c(N2CCOCC2)s1 [Example 78, [4-(4-Chloro-phenyl)-5-morpholin-4-yl-thiophen-2-yl]-phenyl-methanone] | -48.3% |
| O=C(c1ccncc1)c1cc(-c2ccc(Cl)cc2)c(N2CCOCC2)s1 [Example 87, [4-(4-Chloro-phenyl)-5-morpholin-4-yl-thiophen-2-yl]-pyridin-4-yl-methanone] | 35% |
| CC(=O)Nc1ccc(-c2cc(C(=O)c3cccnc3)sc2N2CCOCC2)cc1 [Example 74, N-{4-[2-Morpholin-4-yl-5-(pyridine-3-carbonyl)-thiophene-3-yl]-phenyl}-acetamide] | 34% |
| COc1ccc(Nc2nc(N)c(C(=O)c3ccc(S(C)(=O)=O)cc3)s2)cc1 [Example 347, ([4-Amino-2-(4-methoxy-phenylamino)-thiazol-5-yl]-(4-methanesulfonyl-phenyl)-methanone)] | 30.3% |
| CS(=O)(=O)c1ccc(-c2cc(C(=O)c3cc(-c4ccc(S(C)(=O)=O)cc4)c(N4CCOCC4)s3)sc2N2CCOCC2)cc1 [Example 112, Bis-[4-(4-methansulfonyl-phenyl)-5-morpholin-4-yl-thiophen-2-yl]-methanone] | 55.6% |
| COc1ccc(C(=O)c2sc(N3CCN(C(=O)c4ccco4)CC3)nc2-c2ccco2)cc1 [Example 372, {2-[4-(Furan-2-carbonyl)-piperazin-1-yl]-4-furan-2-yl-thiazol-5-yl}-(4-methoxy-phenyl)-methanone] | 52.2% |
| Nc1nc(Nc2ccccc2)sc1C(=O)c1ccc(Cl)cc1Cl [Example 324, (4-Amino-2-phenylamino-thiazol-5-yl)-(2,4-dichloro-phenyl)-methanone] | 55% |
| COc1c(C)cnc(-c2sc(Nc3ccccc3)nc2N)c1C [Example 330, 5-(4-Methoxy-3,5-dimethyl-pyridin-2-yl)-N2-phenyl-thiazole-2,4-diamine] | 24% |

Same assay, conditions: rat paw edema, 50 mg/kg, reading 3 hours after carrageenan; [(Control−Test)/Control]×100%

| Molecule | % Protection P |
| --- | --- |
| 4-{3-(4-Chloro-phenyl)-5-[5-methyl-4-(2,2,2-trifluoro-ethoxy)-pyridin-2-yl]-thiophen-2-yl}-morpholine [Example 77] | 23% |
| [4-(4-Chloro-phenyl)-5-morpholin-4-yl-thiophen-2-yl]-(5-methoxy-4,6-dimethyl-pyridin-2-yl)-methanone [Example 76] | 17% |
| CSc1ccc(C(=O)c2cc(-c3ccc(Cl)cc3)c(N3CCOCC3)s2)cc1 [Example 83, [4-(4-Chloro-phenyl)-5-morpholin-4-yl-thiophen-2-yl]-(4-methansulfanyl-phenyl)-methanone] | 27% |

Same assay, conditions: rat paw edema, 50 mg/kg, reading 3 hours after carrageenan; [(Control−Test)/Control]×100%; 50 mg/kg

| Molecule | % Protection P |
| --- | --- |
| Cc1nc(NC(=O)c2ccccc2)sc1C(=O)c1sc(NC(=O)c2ccccc2)nc1C [Example 121, Bis-[2-(2-Benzoyl-amino)-4-methyl-thiazole-5-yl]-methanone] | 62% |
| COc1ccc(C(=O)c2sc(Nc3ccccc3)nc2NC(=O)Nc2ccc(F)cc2)cc1 [Example 354, 1-(4-Fluoro-phenyl)-3-[5-(4-methoxy-benzoyl)-2-phenylamino-thiazol-4-yl]-urea] | 26.27% |
| Cc1nc(NC(=O)c2ccccc2)sc1C(=O)c1sc(NC(=O)c2ccccc2)nc1C [Example 128, Bis-[2-(2-Benzoyl-amino)-4-methyl-thiazole-5-yl]-methanone] | 34% |
